Test results taken from patent publication US20240400553A1, “AMINE BASED MATRIPTASE 2 INHIBITORS AND USES THEREOF” (Disc Medicine, Inc., priority 2023, published 2024).
pKi: −log10 of the molar value. Where two headings read alike, the source gives them in different places.

Molecular target: T1, Human Recombinant Matriptase 2 (Homo sapiens, UniProt Q8IU80)
T1 construct: made in house
T1 sequence (Q8IU80 1-811): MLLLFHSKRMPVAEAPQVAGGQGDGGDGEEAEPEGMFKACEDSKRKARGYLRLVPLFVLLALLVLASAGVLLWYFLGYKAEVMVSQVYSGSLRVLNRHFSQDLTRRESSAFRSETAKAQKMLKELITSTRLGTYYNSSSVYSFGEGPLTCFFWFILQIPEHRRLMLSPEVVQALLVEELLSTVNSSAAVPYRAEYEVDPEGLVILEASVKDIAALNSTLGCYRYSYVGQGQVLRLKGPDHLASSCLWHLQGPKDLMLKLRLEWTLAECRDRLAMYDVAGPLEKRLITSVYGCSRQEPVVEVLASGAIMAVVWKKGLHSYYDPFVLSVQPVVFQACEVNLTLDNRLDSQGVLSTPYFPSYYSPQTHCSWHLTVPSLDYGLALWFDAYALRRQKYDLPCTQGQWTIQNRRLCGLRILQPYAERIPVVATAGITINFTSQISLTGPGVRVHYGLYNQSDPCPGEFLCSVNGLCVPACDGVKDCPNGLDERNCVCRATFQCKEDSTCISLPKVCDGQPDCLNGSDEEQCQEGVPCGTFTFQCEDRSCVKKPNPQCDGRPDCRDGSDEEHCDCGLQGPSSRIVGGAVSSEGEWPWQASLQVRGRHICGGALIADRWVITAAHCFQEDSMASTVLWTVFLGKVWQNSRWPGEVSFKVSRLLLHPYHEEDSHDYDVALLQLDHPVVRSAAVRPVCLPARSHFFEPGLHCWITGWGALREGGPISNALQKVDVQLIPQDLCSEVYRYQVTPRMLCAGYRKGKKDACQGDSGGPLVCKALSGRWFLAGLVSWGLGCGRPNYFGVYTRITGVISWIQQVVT
Assay: Matriptase 2 inhibition, fluorescence based assay (Method I)
Format: biochemical
Procedure, shortened: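 Fluorogenic readout (Ex 360/Em 480 nm) taken 60 min after adding 62 μM Boc-Gln-Ala-Arg-AMC, following 30-min enzyme–compound preincubation at 25 °C. Conditions: 3.5 nM in-house enzyme, pH 7.5 Tris/NaCl/gelatin buffer, 1% DMSO; percent inhibition versus concentration fitted by variable-slope sigmoidal regression.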

[1] = Table B, Human Recombinant Matriptase 2, 3.5 nM enzyme, 62 μM substrate, 30 mins preincubation, read-out: Mean Ki
[2] = Table A, Ki of Matriptase-2, read-out: Mat-2 Ki
[3] = Table A, Ki of Matriptase-2 given as class symbols, read-out: Mat-2 Ki

pKi [2] | pKi [3] | SMILES | other results
– | – | CN1CCC(CCOC(=O)c2cc3ccc(CN)nc3n2Cc2cc(NS(=O)(=O)Cc3ccccc3)cc3ccccc23)CC1=O (stereo not drawn) [Compound 2.3] | pKi [1]: ≥ 7.00
≥ 7.00 | – | Cc1cccc(C)c1CS(=O)(=O)Nc1cc(Cn2c(C(=O)OCCCN3CCOCC3)cc3ccc(CN)nc32)c2ccccc2c1 [Compound 190, 3-(morpholin-4-yl)prop-yl 6-(aminomethyl)-1-({3-[(2,6-dimethylphen-yl)methanesulfonamido]-naphthalen-1-yl}meth-yl)-1H-pyrrolo[2,3-b]-pyridine-2-carboxylate] | –
≥ 7.00 | – | CN1CCC(COC(=O)c2cc3ccc(CN)nc3n2Cc2cc(NS(=O)(=O)Cc3sccc3F)cc3ccccc23)CC1 [Compound 147, (1-methylpiperidin-4-yl)-methyl 6-(aminomethyl)-1-({3-[(3-fluorothiophen-2-yl)methanesulfon-amido]naphthalen-1-yl}-methyl)-1H-pyrrolo[2,3-b]pyridine-2-carboxylate] | –
– | – | CN1CCC(COC(=O)c2cc3ccc(CN)nc3n2Cc2cc(NS(=O)(=O)Cc3ccccc3)cc3ccccc23)CCC1=O (stereo not drawn) [Compound 2.18] | pKi [1]: ≥ 7.00
– | – | CN1CCC(COC(=O)c2cc3ccc(CN)nc3n2CC(NS(=O)(=O)Cc2ccccc2)c2ccccc2)CC1 (stereo not drawn) [Compound 2.37] | pKi [1]: < 5.52
– | ≥ 7.00 | Cc1cccc(C)c1CS(=O)(=O)Nc1cc(Cn2c(C(=O)OCC3CCN(C)CC3)cc3ccc(CN)cc32)c2ccccc2c1 [Compound 375, (1-methylpiperidin-4-yl)-methyl 6-(aminomethyl)-1-({3-[(2,6-dimethyl-phenyl)methanesulfon-amido)naphthalen-1-yl}-methyl)-1H-indole-2-carboxylate] | –
– | 6.30 to 7.00 | NCc1ccc2cc(C(=O)O)n(Cc3cc(NS(=O)(=O)CCc4ccccc4)cc4ccccc34)c2n1 [Compound 230, 6-(aminomethyl)-1-{[3-(2-phenylethanesulfon-amido)naphthalen-1-yl]-methyl}-1H-pyrrolo[2,3-b]pyridine-2-carboxylic acid] | –
– | 6.30 to 7.00 | NCc1ccc2cc(C(=O)O)n(Cc3cc(NS(=O)(=O)CCn4ccnn4)cc4ccccc34)c2n1 [Compound 228, 6-(aminomethyl)-1-({3-[2-(1H-1,2,3-triazol-1-yl)ethanesulfonamido]-naphthalen-1-yl}meth-yl)-1H-pyrrolo[2,3-b]-pyridine-2-carboxylic acid] | –
– | 6.30 to 7.00 | NCc1ccc2cc(C(=O)O)n(Cc3cc(NS(=O)(=O)CC4CCNCC4)cc4ccccc34)c2n1 [Compound 216, 6-(aminomethyl)-1-({3-[(piperidin-4-yl)methane-sulfonamido]naphthalen-1-yl}methyl)-1H-pyr-rolo[2,3-b]pyridine-2-carboxylic acid] | –
– | 6.30 to 7.00 | NCc1ccc2cc(C(=O)O)n(Cc3cc(NS(=O)(=O)CCC4CCNCC4)cc4ccccc34)c2n1 [Compound 223, 6-(aminomethyl)-1-({3-[2-(piperidin-4-yl)-ethanesulfonamido]-naphthalen-1-yl}meth-yl)-1H-pyrrolo[2,3-b]-pyridine-2-carboxylic acid] | –
≥ 7.00 | – | CC(C)N1CCC(COC(=O)c2cc3ccc(CN)nc3n2Cc2cc(NS(=O)(=O)Cc3ccccc3)cc3ccccc23)CC1 [Compound 15] | –
6.30 to 7.00 | – | CNC(=O)c1cc2ccc(CN)nc2n1Cc1cc(NS(=O)(=O)CC[C@@H]2CCCN2)cc2ccccc12 [Compound 3] | –
6.30 to 7.00 | – | NCc1ccc2cc(C(=O)OCc3ccncc3)n(Cc3cc(NS(=O)(=O)Cc4ccccc4)cc4ccccc34)c2n1 [Compound 100, (pyridin-4-yl)methyl 6-(aminomethyl)-1-{[3-(phenylmethanesulfon-amido)naphthalen-1-yl]-methyl}-1H-pyrrolo[2,3-b]pyridine-2-carboxylate] | –
6.30 to 7.00 | – | NCc1ccc2cc(C(=O)OCC3CCN(CC(F)F)CC3)n(Cc3cc(NS(=O)(=O)Cc4ccccc4)cc4ccccc34)c2n1 [Compound 107, [1-(2,2-difluoroethyl)-piperidin-4-yl]methyl 6-(aminomethyl)-1-{[3-(phenylmethanesulfon-amido)naphthalen-1-yl]-methyl}-1H-pyrrolo[2,3-b]pyridine-2-carboxylate] | –
6.30 to 7.00 | – | CC(C)(C)n1ccc(COC(=O)c2cc3ccc(CN)nc3n2Cc2cc(NS(=O)(=O)Cc3ccccc3)cc3ccccc23)n1 [Compound 106, (1-tert-butyl-1H-pyrazol-3-yl)methyl 6-(amino-methyl)-1-{[3-(phenyl-methanesulfonamido)-naphthalen-1-yl]methyl}-1H-pyrrolo[2,3-b]pyr-idine-2-carboxylate] | –
– | 6.30 to 7.00 | NCc1ccc2cc(C(=O)O)n(Cc3cc(NS(=O)(=O)Cc4ccncc4)cc4ccccc34)c2n1 [Compound 245, 6-(aminomethyl)-1-({3-[(pyridin-4-yl)methane-sulfonamido]naphthalen-1-yl}methyl)-1H-pyr-rolo[2,3-b]pyridine-2-carboxylic acid] | –
≥ 7.00 | – | NCc1ccc2cc(C(=O)OCCN3CCCCC3)n(Cc3cc(NS(=O)(=O)Cc4ccccc4)cc4ccccc34)c2n1 [Compound 65, 2-(piperidin-1-yl)ethyl 6-(aminomethyl)-1-{[3-(phenylmethanesulfon-amido)naphthalen-1-yl]-methyl}-1H-pyrrolo[2,3-b]pyridine-2-carboxylate] | –
5.52 to 6.30 | – | NCc1ccc2cc(C(=O)OCCn3cccc3)n(Cc3cc(NS(=O)(=O)Cc4ccccc4)cc4ccccc34)c2n1 [Compound 114, 2-(1H-pyrrol-1-yl)ethyl 6-(aminomethyl)-1-{[3-(phenylmethanesulfon-amido)naphthalen-1-yl]-methyl}-1H-pyrrolo[2,3-b]pyridine-2-carboxylate] | –
– | 6.30 to 7.00 | NCc1ccc2cc(C(=O)O)n(Cc3cc(NS(=O)(=O)Cc4ccsc4)cc4c3CCCC4)c2n1 [Compound 287, 6-(aminomethyl)-1-({3-[(thiophen-3-yl)methane-sulfonamido]-5,6,7,8-tetrahydronaphthalen-1-yl}methyl)-1H-pyrrolo-[2,3-b]pyridine-2-carbox-ylic acid] | –
– | 6.30 to 7.00 | NCc1ccc2cc(-c3cnn[nH]3)n(Cc3cc(NS(=O)(=O)Cc4ccccc4)cc4ccccc34)c2n1 [Compound 350, N-(4-((6-(aminomethyl)-2-(1H-1,2,3-triazol-5-yl)-1H-pyrrolo[2,3-b]pyridin-1-yl)methyl)naphthalen-2-yl)-1-phenylmethanesulfonamide] | –
6.30 to 7.00 | – | NCc1ccc2cc(C(=O)OCCN3CCOC3=O)n(Cc3cc(NS(=O)(=O)Cc4ccccc4)cc4ccccc34)c2n1 [Compound 130] | –
– | 6.30 to 7.00 | CC(=O)O[C@H](C)OC(=O)c1cc2ccc(CN)nc2n1Cc1cc(NS(=O)(=O)CC2CCNCC2)cc2ccccc12 (racemic) [Compound 263, 1-[6-(aminomethyl)-1-({3-[(piperidin-4-yl)-methanesulfonamido]-naphthlen-1-yl}methyl)-1H-pyrrolo[2,3-b]pyr-idine-2-carbonyloxy]-ethyl acetate] | –
– | 5.52 to 6.30 | COCCN1CCN(C(=O)Nc2cc(Cn3c(C(=O)O)cc4ccc(CN)cc43)c3ccccc3c2)CC1 [Compound 394, 6-(aminomethyl)-1-((3-(4-(2-methoxyethyl)piperazine-1-carboxamido)naphthalen-1-yl)methyl)-1H-indole-2-carboxylic acid] | –
≥ 7.00 | – | CN(C)C(=O)CCCNC(=O)c1cc2ccc(CN)nc2n1Cc1cc(NS(=O)(=O)Cc2ccccc2)cc2ccccc12 [Compound 38, 4-{[6-(aminomethyl)-1-{[3-(phenylmethane-sulfonamido)naphthalen-1-yl]methyl}-1H-pyr-rolo[2,3-b]pyridin-2-yl]-formamido}-N,N-dimethylbutanamide] | –
